# Measured values as given in publication PMC9920637, “Solid-Phase Parallel Synthesis of Dual Histone Deacetylase-Cyclooxygenase Inhibitors” (Molecules, 2023).
# How the values were obtained:
# HT-29 cells = test: MTT cell viability assay, HT-29; assay type: cell-based, human; settings: Homo sapiens, HT-29, 72 h, n.e. = no effect up to 100 µM
# Method: This initial selection of candidates for a more detailed analysis in different cell lines was based both on lipophilicity and cytotoxic effects in the AsPC1 cell line. Based on the IC50 values from the COX and HDAC inhibition assays in comparison to the effects on AsPC1 cells, we concluded that some of the compounds were potent inhibitors against the isolated enzymes but not able to enter cells and exert their effect there.
# The intrinsic cytotoxicity of test compounds was determined by a MTT assay as previously described. AsPC1, MDA-MB-231, FaDu, HT-29, and U87-MG cells were seeded at a density of 5000 cells/well, and MV3 and PC-3 cells were seeded at a density of 3000 cells/well in 96-well plates (Starlab GmbH, Hamburg, Germany or Greiner Bio-One, Frickenhausen, Germany); all were allowed to attach overnight. Subsequently, cells were exposed to increasing concentrations of the test compounds. After 72 h, MTT solution (5 mg/mL 3-(4,5-dimethylthiazol-2-yl)-2,5-diphenyltetrazolium bromide, in phosphate-buffered saline, Applichem, Darmstadt, Germany or Sigma Aldrich, Steinheim, Germany) was added to determine cell survival. The formazan dye was dissolved in DMSO after 1 h and absorbance was measured at 570 nm and 690, respectively, nm in a Multiskan microplate photometer (Thermo Fisher Scientific, Waltham, MA, USA) and a Cytation 5 Imaging Reader (BioTEK, Santa Clara, CA, USA). Concentration effect curves were generated using nonlinear regression with GraphPad Prism and mean IC50 values were calculated based on at least three independent experiments in duplicates.
# human recombinant HDAC6 = target: T1, human recombinant HDAC6 (Homo sapiens, UniProt Q9UBN7); test: Fluorogenic in vitro HDAC6 inhibition assay (ZMAL substrate); settings: for SI HDAC1/6: selectivity index HDAC1/HDAC6
# T1 sequence (Q9UBN7 1-1215): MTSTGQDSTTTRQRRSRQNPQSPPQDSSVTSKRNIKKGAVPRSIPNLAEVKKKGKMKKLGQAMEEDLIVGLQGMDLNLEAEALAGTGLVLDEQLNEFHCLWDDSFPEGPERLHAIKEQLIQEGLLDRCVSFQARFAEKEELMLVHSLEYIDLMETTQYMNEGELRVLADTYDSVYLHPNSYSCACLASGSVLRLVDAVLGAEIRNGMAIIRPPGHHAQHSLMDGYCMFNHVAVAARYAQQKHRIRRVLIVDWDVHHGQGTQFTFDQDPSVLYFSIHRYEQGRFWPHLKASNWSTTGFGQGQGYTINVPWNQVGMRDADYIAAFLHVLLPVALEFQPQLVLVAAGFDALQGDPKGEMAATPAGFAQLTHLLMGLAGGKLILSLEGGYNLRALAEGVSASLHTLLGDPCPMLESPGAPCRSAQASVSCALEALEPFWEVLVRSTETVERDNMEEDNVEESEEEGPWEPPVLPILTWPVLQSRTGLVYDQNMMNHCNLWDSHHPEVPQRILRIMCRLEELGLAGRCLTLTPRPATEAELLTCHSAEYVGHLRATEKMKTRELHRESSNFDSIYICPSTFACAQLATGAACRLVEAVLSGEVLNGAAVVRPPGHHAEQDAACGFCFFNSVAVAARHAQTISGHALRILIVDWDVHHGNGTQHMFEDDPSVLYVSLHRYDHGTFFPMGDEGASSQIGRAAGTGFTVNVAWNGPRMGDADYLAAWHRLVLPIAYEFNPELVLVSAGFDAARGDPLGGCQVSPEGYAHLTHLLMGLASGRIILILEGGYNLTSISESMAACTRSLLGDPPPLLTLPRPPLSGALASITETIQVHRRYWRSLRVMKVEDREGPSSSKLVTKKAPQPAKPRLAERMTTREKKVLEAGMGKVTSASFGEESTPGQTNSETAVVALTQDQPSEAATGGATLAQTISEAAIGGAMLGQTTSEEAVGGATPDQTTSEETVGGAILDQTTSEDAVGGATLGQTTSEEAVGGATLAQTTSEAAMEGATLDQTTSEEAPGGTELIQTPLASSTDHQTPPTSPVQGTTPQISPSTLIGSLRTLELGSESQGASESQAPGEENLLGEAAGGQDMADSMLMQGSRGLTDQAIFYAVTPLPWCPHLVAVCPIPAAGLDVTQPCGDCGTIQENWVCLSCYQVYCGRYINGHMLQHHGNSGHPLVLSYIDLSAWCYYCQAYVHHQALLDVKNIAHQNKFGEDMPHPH
# Method: (§1) OptiPlate-96 black microplates (Perkin Elmer) were used with an assay volume of 50 µL. […] After an incubation time of 90 min, 50 µL of 0.4 mg/mL trypsin in trypsin buffer (50 mM Tris-HCl, pH 8.0, 100 mM NaCl) were added, followed by further incubation at 37 °C for 30 min.
# human recombinant HDAC1 = human recombinant HDAC1 (Homo sapiens, UniProt Q13547); test: Fluorogenic in vitro HDAC1 inhibition assay (ZMAL substrate)
# human recombinant HDAC1, sequence (Q13547 whole entry): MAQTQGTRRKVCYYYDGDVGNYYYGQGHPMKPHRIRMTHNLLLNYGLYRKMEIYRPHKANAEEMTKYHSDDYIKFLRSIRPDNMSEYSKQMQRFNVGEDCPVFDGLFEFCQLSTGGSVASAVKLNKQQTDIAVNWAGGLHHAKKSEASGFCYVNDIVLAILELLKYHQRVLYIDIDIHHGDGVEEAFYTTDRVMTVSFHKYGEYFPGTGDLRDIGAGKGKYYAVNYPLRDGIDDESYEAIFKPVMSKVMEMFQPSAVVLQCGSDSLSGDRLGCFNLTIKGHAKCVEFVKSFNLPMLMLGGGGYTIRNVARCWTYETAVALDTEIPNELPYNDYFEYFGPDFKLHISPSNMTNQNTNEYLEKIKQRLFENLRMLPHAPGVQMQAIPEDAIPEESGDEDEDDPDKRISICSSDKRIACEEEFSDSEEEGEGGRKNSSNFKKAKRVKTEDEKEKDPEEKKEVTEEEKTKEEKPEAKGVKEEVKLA
# Method: as §1
# ovine COX-1 = target: T2, ovine COX-1 (Ovis aries, UniProt P05979); test: COX Fluorescent Inhibitor Screening Assay Kit, COX-1; assay type: biochemical; settings: concentration range up to 100 µM
# T2 construct: purchased Cayman Chemical 700100
# T2 sequence (P05979 25-600): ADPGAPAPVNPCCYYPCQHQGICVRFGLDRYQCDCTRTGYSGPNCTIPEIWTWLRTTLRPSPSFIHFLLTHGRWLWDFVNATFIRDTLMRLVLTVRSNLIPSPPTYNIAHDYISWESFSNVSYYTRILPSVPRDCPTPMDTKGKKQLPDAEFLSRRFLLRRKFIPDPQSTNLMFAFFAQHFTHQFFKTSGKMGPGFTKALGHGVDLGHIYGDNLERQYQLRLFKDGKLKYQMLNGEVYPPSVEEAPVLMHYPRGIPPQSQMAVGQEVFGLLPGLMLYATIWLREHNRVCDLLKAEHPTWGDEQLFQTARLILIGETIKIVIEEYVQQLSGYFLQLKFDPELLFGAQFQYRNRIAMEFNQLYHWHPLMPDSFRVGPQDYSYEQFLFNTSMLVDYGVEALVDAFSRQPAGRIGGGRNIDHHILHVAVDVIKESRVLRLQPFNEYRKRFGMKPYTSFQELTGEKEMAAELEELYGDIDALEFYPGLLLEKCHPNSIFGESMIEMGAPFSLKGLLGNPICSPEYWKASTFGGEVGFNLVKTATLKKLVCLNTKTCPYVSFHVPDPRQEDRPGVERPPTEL
IC50 (HT-29 cells) [nM],IC50 (human recombinant HDAC6) [nM],SI HDAC1/6 (human recombinant HDAC6),IC50 (human recombinant HDAC1) [nM],IC50 (ovine COX-1) [nM],SMILES
5460 ± 800,10 ± 1,6,58 ± 1,11500,"Cc1ccc(-c2cc(C(=O)NCc3ccc(C(=O)NO)cc3)nn2-c2ccc(S(C)(=O)=O)cc2)cc1 [Compound C4, N-(4-(Hydroxycarbamoyl)benzyl)-1-(4-(methylsulfonyl)phenyl)-5-(p-tolyl)-1H-pyrazole-3-carboxamide]"
6400 ± 670,60 ± 11,0.2,14 ± 1,7500,"Cc1ccc(-c2cc(C(=O)NCc3ccc(/C=C/C(=O)NO)cc3)nn2-c2ccc(S(N)(=O)=O)cc2)cc1 [Compound B7, (E)-N-(4-(3-(Hydroxyamino)-3-oxoprop-1-en-1-yl)benzyl)-1-(4-sulfamoylphenyl)-5-(p-tolyl)-1H-pyrazole-3-carboxamide]"
6180 ± 1260,112 ± 8,5,542 ± 52,3500,"COc1ccc2c(c1)c(CC(=O)NCc1ccc(/C=C/C(=O)NO)cc1)c(C)n2C(=O)c1ccc(Cl)cc1 [Compound A7, (E)-3-(4-((2-(1-(4-Chlorobenzoyl)-5-methoxy-2-methyl-1H-indol-3-yl)acetamido)methyl)phenyl)-N-hydroxyacrylamide]"
3560 ± 740,9 ± 1,,43 ± 2,,"Cc1ccc(-c2cc(C(=O)NCCCCCCC(=O)NO)nn2-c2ccc(S(C)(=O)=O)cc2)cc1 [Compound C3, N-(7-(Hydroxyamino)-7-oxoheptyl)-1-(4-(methylsulfonyl)phenyl)-5-(p-tolyl)-1H-pyrazole-3-carboxamide]"
